# Measurements published in patent US11634404B2 (priority 2016, dated 2023).
# Columns and labels:
# [1] = biological target: T1, D2 DAR (Homo sapiens (Human), UniProt P14416); assay: [35S]GTPγS binding assay; type: biochemical; settings: % maximum dopamine response
# Text: A [^35S]GTPγS (Perkin Elmer NEG030H) binding assay was utilized as described in the protocol below (Table 7).
# [2] = biological target: panel of 168 GPCRs (Homo sapiens, UniProt O00574); type: cell-based; settings: GPCR CXCR6; agonist, 10 μM
# [3] = biological target: panel of 168 GPCRs (Homo sapiens, UniProt Q9HBW0); type: cell-based; settings: GPCR EDG4; agonist, 10 μM
# [4] = biological target: panel of 168 GPCRs (Homo sapiens, UniProt P28335); type: cell-based; settings: GPCR HTR2C; agonist, 10 μM
# [5] = biological target: panel of 168 GPCRs (Homo sapiens, UniProt O43613); type: cell-based; settings: GPCR HCRTR1; agonist, 10 μM
# [6] = biological target: panel of 168 GPCRs (Homo sapiens, UniProt Q5NUL3); type: cell-based; settings: GPCR GPR120; agonist, 10 μM
# [7] = biological target: panel of 168 GPCRs (Homo sapiens, UniProt Q96P65); type: cell-based; settings: GPCR GPR103; agonist, 10 μM
# [8] = biological target: panel of 168 GPCRs (Homo sapiens, UniProt P51684); type: cell-based; settings: GPCR CCR6; agonist, 10 μM
# [9] = biological target: panel of 168 GPCRs (Homo sapiens, UniProt P48546); type: cell-based; settings: GPCR GIPR; agonist, 10 μM
# [10] = biological target: panel of 168 GPCRs (Homo sapiens, UniProt P43115); type: cell-based; settings: GPCR PTGER3; agonist, 10 μM
# [11] = biological target: panel of 168 GPCRs (Homo sapiens, UniProt Q15077); type: cell-based; settings: GPCR P2RY6; agonist, 10 μM
# [12] = biological target: panel of 168 GPCRs (Homo sapiens, UniProt Q9NSD7); type: cell-based; settings: GPCR RXFP3; agonist, 10 μM
# [13] = biological target: panel of 168 GPCRs (Homo sapiens, UniProt Q99500); type: cell-based; settings: GPCR EDG3; agonist, 10 μM
# [14] = biological target: panel of 168 GPCRs (Homo sapiens, UniProt P21917); type: cell-based; settings: GPCR DRD4; agonist, 10 μM
# [15] = biological target: panel of 168 GPCRs (Homo sapiens, UniProt Q9H244); type: cell-based; settings: GPCR P2RY12; agonist, 10 μM
# [16] = biological target: panel of 168 GPCRs (Homo sapiens, UniProt P25101); type: cell-based; settings: GPCR EDNRA; agonist, 10 μM
# [17] = biological target: panel of 168 GPCRs (Homo sapiens, UniProt P32249); type: cell-based; settings: GPCR EBI2; agonist, 10 μM
# [18] = biological target: panel of 168 GPCRs (Homo sapiens, UniProt P61073); type: cell-based; settings: GPCR CXCR4; agonist, 10 μM
# [19] = biological target: panel of 168 GPCRs (Homo sapiens, UniProt Q01726); type: cell-based; settings: GPCR MC1R; agonist, 10 μM
# [20] = biological target: panel of 168 GPCRs (Homo sapiens, UniProt P35346); type: cell-based; settings: GPCR SSTR5; agonist, 10 μM
# [21] = biological target: panel of 168 GPCRs (Homo sapiens, UniProt P20309); type: cell-based; settings: GPCR CHRM3; agonist, 10 μM
# [22] = biological target: panel of 168 GPCRs (Homo sapiens, UniProt O14842); type: cell-based; settings: GPCR FFAR1; agonist, 10 μM
# [23] = biological target: panel of 168 GPCRs (Homo sapiens, UniProt P30872); type: cell-based; settings: GPCR SSTR1; agonist, 10 μM
# [24] = biological target: panel of 168 GPCRs (Homo sapiens, UniProt P21728); type: cell-based; settings: GPCR DRD1; agonist, 10 μM
# [25] = biological target: panel of 168 GPCRs (Homo sapiens, UniProt P51582); type: cell-based; settings: GPCR P2RY4; agonist, 10 μM
# [26] = biological target: panel of 168 GPCRs (Homo sapiens, UniProt P08588); type: cell-based; settings: GPCR ADRB1; agonist, 10 μM
# [27] = biological target: panel of 168 GPCRs (Homo sapiens, UniProt O95838); type: cell-based; settings: GPCR GLP2R; agonist, 10 μM
# [28] = biological target: panel of 168 GPCRs (Homo sapiens, UniProt P47898); type: cell-based; settings: GPCR HTR5A; agonist, 10 μM
# [29] = biological target: panel of 168 GPCRs (Homo sapiens, UniProt Q9H1C0); type: cell-based; settings: GPCR GPR92; agonist, 10 μM
# [30] = biological target: panel of 168 GPCRs (Homo sapiens, UniProt P35372); type: cell-based; settings: GPCR OPRM1; agonist, 10 μM
# [31] = biological target: T1, D2 DAR; type: cell-based; settings: β-arrestin recruitment, agonist; 'curve' = wrapped cell 'curve interrupted'
# 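For β-Arrestin Recruitment activity in this document: recruitment activity reported in % for each GPCR in the panel.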
# T1 sequence (P14416 whole entry): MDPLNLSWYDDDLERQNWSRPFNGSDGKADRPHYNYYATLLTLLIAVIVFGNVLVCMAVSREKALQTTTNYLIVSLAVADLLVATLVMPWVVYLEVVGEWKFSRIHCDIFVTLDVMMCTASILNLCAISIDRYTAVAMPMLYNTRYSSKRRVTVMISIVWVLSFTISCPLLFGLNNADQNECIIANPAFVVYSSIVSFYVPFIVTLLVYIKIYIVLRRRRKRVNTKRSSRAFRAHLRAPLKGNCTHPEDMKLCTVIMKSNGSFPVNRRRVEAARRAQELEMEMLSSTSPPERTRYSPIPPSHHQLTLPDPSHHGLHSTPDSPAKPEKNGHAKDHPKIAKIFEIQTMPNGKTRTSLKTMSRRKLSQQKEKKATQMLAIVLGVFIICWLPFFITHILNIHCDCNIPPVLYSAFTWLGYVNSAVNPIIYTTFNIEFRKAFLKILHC
# Sequence of panel of 168 GPCRs (Homo sapiens, UniProt P25101) (P25101 21-427 limits assumed): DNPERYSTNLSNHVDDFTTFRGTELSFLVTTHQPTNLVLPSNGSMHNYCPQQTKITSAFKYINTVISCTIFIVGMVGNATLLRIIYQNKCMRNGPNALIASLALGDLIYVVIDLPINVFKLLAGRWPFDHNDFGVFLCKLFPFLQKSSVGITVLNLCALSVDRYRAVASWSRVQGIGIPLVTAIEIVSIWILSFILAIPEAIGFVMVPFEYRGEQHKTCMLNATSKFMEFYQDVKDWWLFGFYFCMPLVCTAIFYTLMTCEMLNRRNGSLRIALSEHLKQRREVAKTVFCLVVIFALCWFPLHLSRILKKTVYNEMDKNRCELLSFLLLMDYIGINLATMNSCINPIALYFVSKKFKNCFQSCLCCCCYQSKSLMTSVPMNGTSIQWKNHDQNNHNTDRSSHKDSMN
# Sequence of panel of 168 GPCRs (Homo sapiens, UniProt P48546) (P48546 22-466 limits assumed): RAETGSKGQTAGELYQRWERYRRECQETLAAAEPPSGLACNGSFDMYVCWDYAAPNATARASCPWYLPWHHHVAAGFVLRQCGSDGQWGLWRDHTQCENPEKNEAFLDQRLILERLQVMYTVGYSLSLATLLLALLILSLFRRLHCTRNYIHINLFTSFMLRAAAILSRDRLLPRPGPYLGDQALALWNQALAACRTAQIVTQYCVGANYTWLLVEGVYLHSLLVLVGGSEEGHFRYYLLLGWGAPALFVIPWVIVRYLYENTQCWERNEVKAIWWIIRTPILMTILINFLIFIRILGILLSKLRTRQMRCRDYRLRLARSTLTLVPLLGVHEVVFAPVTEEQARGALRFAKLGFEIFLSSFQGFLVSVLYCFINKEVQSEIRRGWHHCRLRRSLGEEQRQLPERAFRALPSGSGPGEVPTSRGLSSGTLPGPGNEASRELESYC
# Sequence of panel of 168 GPCRs (Homo sapiens, UniProt P28335) (P28335 33-458 limits assumed): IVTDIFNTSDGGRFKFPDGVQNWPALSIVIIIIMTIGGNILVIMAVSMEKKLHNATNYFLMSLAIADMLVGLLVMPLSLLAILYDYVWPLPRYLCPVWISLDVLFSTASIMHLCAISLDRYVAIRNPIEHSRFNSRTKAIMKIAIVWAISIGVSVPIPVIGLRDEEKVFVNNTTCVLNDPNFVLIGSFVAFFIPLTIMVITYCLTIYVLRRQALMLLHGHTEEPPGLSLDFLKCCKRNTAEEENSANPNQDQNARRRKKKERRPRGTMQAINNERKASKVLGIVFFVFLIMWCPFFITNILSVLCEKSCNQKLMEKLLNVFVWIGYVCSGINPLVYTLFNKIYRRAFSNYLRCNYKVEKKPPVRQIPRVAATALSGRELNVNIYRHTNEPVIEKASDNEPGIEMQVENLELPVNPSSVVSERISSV
structure (smiles),measurement,setting,value
"COc1ccc(OCCN2CCN(C(=O)c3cc4ccccc4[nH]3)CC2)cc1 [Compound 1, (1H-indol-2-yl)(4-(2-(4-methoxyphenoxy)ethyl)piperazin-1-yl)methanone]","activation of the D2 DAR, [35S]GTPγS binding",[1],not to activate the D2 DAR
same,β-Arrestin Recruitment activity,[2],8%
same,β-Arrestin Recruitment activity,[3],6%
same,β-Arrestin Recruitment activity,[4],6%
same,β-Arrestin Recruitment activity,[5],0%
same,β-Arrestin Recruitment activity,[6],12%
same,β-Arrestin Recruitment activity,[7],−9%
same,β-Arrestin Recruitment activity,[8],0%
same,β-Arrestin Recruitment activity,[9],3%
same,β-Arrestin Recruitment activity,[10],3%
same,β-Arrestin Recruitment activity,[11],6%
same,β-Arrestin Recruitment activity,[12],5%
same,β-Arrestin Recruitment activity,[13],4%
same,β-Arrestin Recruitment activity,[14],4%
same,β-Arrestin Recruitment activity,[15],4%
same,β-Arrestin Recruitment activity,[16],0%
same,β-Arrestin Recruitment activity,[17],0%
same,β-Arrestin Recruitment activity,[18],17%
same,β-Arrestin Recruitment activity,[19],5%
same,β-Arrestin Recruitment activity,[20],3%
same,β-Arrestin Recruitment activity,[21],0%
same,β-Arrestin Recruitment activity,[22],4%
same,β-Arrestin Recruitment activity,[23],0%
same,β-Arrestin Recruitment activity,[24],0%
same,β-Arrestin Recruitment activity,[25],13%
same,β-Arrestin Recruitment activity,[26],3%
same,β-Arrestin Recruitment activity,[27],0%
same,β-Arrestin Recruitment activity,[28],3%
same,β-Arrestin Recruitment activity,[29],6%
same,β-Arrestin Recruitment activity,[30],0%
same,D2 Emax,[31],Curve
